Data: US8053417B2, “Hexosylceramides as adjuvants and their uses in pharmaceutical compositions” (Helmholtz-Zentrum fuer Infektionsforschung GmbH, priority 2005, dated 2011)

Key:
[1] = test system: Unstimulated spleen cells; assay: In vitro stimulation of unstimulated spleen cells ([3H]thymidine uptake); assay type: cell-based, mice; conditions: 4 days
Description: Experimental protocol: Spleens from female BALB/c (H-2d, Harlan Winkelmann) or CD1d−/− (Jackson Laboratories) mice of 6 weeks of age were removed and pooled for analysis of cellular immune responses. Cells were grown in RPMI 1640 supplemented with 10% fetal calf serum, 100 U/ml of penicillin, 50 μg/ml of streptomycin, 5×10^−5 M 2-mercaptoethanol and 1 mM L-glutamine (GIBCO BRL, Karlsruhe, Germany) and maintained at 37° C. in a humidified 5% CO2 atmosphere. Spleen cell suspensions were adjusted to 5×10^6 cells/ml in complete medium, cells were seeded with 100 μl per well in a flat-bottomed 96-well microtiter plate (Nunc) and plates were incubated for 4 days. Unstimulated spleen cells were incubated in the presence of different concentrations of the new adjuvants to analyze the in vitro stimulation capacity of alphaGalCerMPEG. T cell mediated immune responses were investigated at day 38 by measuring the proliferation of cells recovered from spleens after in vitro restimulation with β-Gal. […] Cells were then harvested on paper filters (Filtermat A; Wallac, Freiburg, Germany) by using a cell harvester (Inotech, Wohlen, Switzerland), and the amount of incorporated [3H]thymidine into the DNA of proliferating cells was determined by a β-scintillation counter (Wallac 1450, Micro-Trilux). The results are expressed as the arithmetic mean of [3H]thymidine uptake in cpm.

[2] = test system: in vitro re-stimulated spleen cells; assay: Cytometric Bead Array of cytokines in supernatants of in vitro re-stimulated spleen cells from vaccinated mice; assay type: in vivo; conditions: parenteral administration (s.c.) with β-Gal
Description: To characterize the type of Th response stimulated following immunization, the content of IFN-γ, IL-2, IL-6, IL-10, MCP-1, and TNFα was measured in supernatants from in vitro re-stimulated spleen cells (FIGS. 8 and 9) by the Cytometric Bead Array. Culture supernatants from proliferating cells were collected on days 2 and 4, and stored at −70° C. Determinations of IFN-γ, TNFα, IL-2, IL-6, IL-10 and MCP-1 were performed by cytometric bead array analysis using the commercial kit from BectonDickinson, according to the manufacturer's instructions. A standard curve was generated for each cytokine by using the corresponding recombinant murine cytokines (Pharmingen). Probes were incubated at room temperature for additional 2 h. The probes were analyzed subsequently by flow cytometry as described in the protocol of BD.

[3] = test system: spleens of vaccinated mice; assay: Elispot of beta-Gal specific cytokine secreting cells in spleens of vaccinated mice; assay type: in vivo
Description: Experimental protocol: Spleens from vaccinated mice were removed and pooled for analysis of cellular immune responses. The protocol for vaccination was identical to the protocol described in Example 3. Cells were grown in RPMI 1640 supplemented with 10% fetal calf serum, 100 U/ml of penicillin, 50 μg/ml of streptomycin, 5×10^−5 M 2-mercaptoethanol and 1 mM L-glutamine (GIBCO BRL, Karlsruhe, Germany) and maintained at 37° C. in a humidified 5% CO2 atmosphere. Lymph node and spleen cell suspensions were adjusted to 5×10^6 cells/ml in complete medium, cells were seeded with 100 μl per well in a flat-bottomed 96-well microtiter plate (Nunc) and plates were incubated 24 h (IFNgamma) or 48 h (IL-2 and IL-4) in the absence or presence of a beta-Gal peptide (TPHARIGL) encompassing a MHC class I-restricted epitope (for IFNgamma) or the beta-Gal protein (for IL-2 and IL-4), at a concentration of 10 μM. Then, cells were removed and the plates processed according to manufacture's instructions. Colored spots were counted with a C.T.L. Elispot reader and analysed using the ImmunoSpot image analyzer software v3.2.
Thus, to further characterize the T helper responses, the number of beta-Gal specific IFNgamma, IL-2 and IL-4 secreting cells present in spleens of vaccinated mice was determined. In agreement with the above results for IgG isotypes, high numbers of IL-4 secreting cells were detected in mice receiving alphaGalCerMPEG or alphaGalCer (FIG. 10).

YAC-1 cells = assay: 51Cr-release assay with splenocytes of injected mice as effectors and YAC-1 cells as targets for NK cells; assay type: in vivo
Description: Experimental protocol: Mice received 10 μg of alphaGalCer or alphaGalCerMPEG by s.c. route, whereas control animals were injected by intraperitoneal route with 100 μg of CpG. After 2 days, they were sacrified and their splenocytes were used as effector cells in a standard 51Cr-release assay using YAC-1 cells as targets for NK cells. Effector cells were washed and their concentration was adjusted to 1×10^6/ml. In parallel, target cells were incubated in RPMKI medium without FCS containing 100 μCi of 51Cr for 2 h. Then, target cells were extensively washed with RPMI medium containing FCS and co-incubated in triplicates with effector cells at different effector:target (E:T) ratios. After 4 h, cells were centrifuged and the radioactivity present in supernatants was measured by scintillation counting. Maximal lysis was determined after lysis with 5% […], whereas spontaneous lysis was measured in supernatants of untreated target cells. Results are expressed as percentage of lysed cells, accordingly to the formula: (sample−spontaneous lysis)/(maximal lysis−spontaneous lysis)×100.

C57BI6 mice = assay: VITAL assay (in vivo CTL), lysis of OVA peptide-pulsed target cells in immunized mice; conditions: 10 μg adjuvant with 50 μg Ovalbumin
Description: Experimental protocol: Six to eight weeks-old female C57BI6 mice were purchased from Harlan Winkelmann GmbH (Borchen, Germany) and treated in accordance with local and European Community guidelines. Groups of 5 mice each were immunized on day 1, 14 and 28 with 50 μg Ovalbumin (Sigma, Germany) alone or with 10 μg alphaGalCerMPEG or alphaGalCer. For intranasal immunization, 10 μl were applied to each naris, whereas for the s.c. injection Ovalbumin (ova) with or without alphaGalCerMPEG or alphaGalCer was resuspended in a volume of 50 μl PBS per animal. The determination of the in vivo lymphocyte-mediated cytotoxicity followed a protocol described by Hermans et. Al. (Herman, I. F., et. Al., 2004, The vital assay, J Immunol Methods, 285, 25-40). A suspension of splenocytes from naïve mice was depleted of red cells and split into two equal portions. The target cell preparation was labelled with a high concentration (1 μM) of CFSE (Molecular Probes) and pulsed for 1 h at 37° C. with the dominant OVA peptide (aa 257-264) at a concentration of 15 μg/ml. […] Cells from spleens were analyzed by flow cytometry after 16 h and 40 h, with the FACScalibur using the software BD cell Quest Pro. […] Cytotoxic activity was assessed with any variability in the proportion of cells in the different target populations assessed in a non-immunized control group for CTL assays.

[4] = background statement; cited from earlier work

Compound: CCCCCCCCCCCCCCCCCCCCCCCCCC(=O)N[C@@H](CO[C@H]1O[C@H](CO)[C@H](O)[C@H](O)[C@H]1O)[C@H](O)[C@H](O)CCCCCCCCCCCCCC [alphaGalCer, alpha-Galactosylceramide]
- stimulation of unstimulated spleen cells with different concentrations [1]: no dose dependent increase
- secretion of IFNgamma [2]: significant enhanced secretion
- secretion of IL-10 [2]: significant enhanced secretion
- secretion of TNFalpha [2]: significant enhanced secretion
- number of IL-4 secreting cells ([3]; spleens of vaccinated mice, beta-Gal protein 10 μM, 48 h): high numbers
- number of IFNgamma secreting cells ([3]; stimulation with MHC class I restricted peptide, 24 h): increased to a significant minor extent
- number of IL-2 secreting cells ([3]; stimulation with β-Gal protein, 48 h): increased to a significant minor extent
- lysis of YAC-1 cells (YAC-1 cells; effector:target ratio 50:1, splenocytes 2 days after injection): 34%
- lysis of YAC-1 cells (YAC-1 cells; effector:target ratio 100:1, splenocytes 2 days after injection): 37%
- fold increase of the cytotoxic potential of splenocytes with respect to OVA antigen alone (5%) (C57BI6 mice): 6.4 fold
- specific lysis of peptide-coated target cells (C57BI6 mice; day 1, 14 and 28): 30%
- solubility in aqueous solvents [4]: poor
